From US11884710B2, “Peptide compounds and methods of use in wound healing” (priority 2013, dated 2024)

B1: CAP37: cationic antimicrobial protein of Mr 37 kDa; recombinant CAP37 produced in human embryonic kidney (HEK) 293 cells (protein)
chain: IVGGRKARPRQFPFLASIQNQGRHFCGGALIHARFVMTAASCFQSQNPGVSTVVLGAYDLRRRERQSRQTFSISSMSENGYDPQQNLNDLMLLQLDREANLTSSVTILPLPLQNATVEAGTRCQVAGWGSQRSGGRLSRFPRFVNVTVTPEDQCRPNNVCTGVLTRRGGICNGDGGTPLVCEGLAHGVASFSLGPCGRGPDFFTRVALFRDWIDGVLNNPGP

Tests used:
[1] = tested on: cytokines in corneal lysates; experiment: Corneal cytokines after intrastromal injection (MILLIPLEX MAP mouse cytokine assay); format: in vivo; settings: intrastromal 0.5 μl, 10^−4, 10^−5, 10^−6 M; 24 and 48 hours
Experimental: Corneas were injected intrastromally with 0.5 μl of peptide 95-122 at a final concentration of 10^−4 M, 10^−5 M, and 10^−6 M and vehicle (saline) control. Corneas were collected and flash frozen at 24 hours and 48 hours. Corneal lysates were analyzed for cytokines using the MILLIPLEX® MAP mouse cytokine assay for IL-7(A), IL-15 (B), IFN-γ (C), MIP1-α (D) (EMD Millipore Corp., Billerica, Mass.). The means of independent experimental values are shown±SEM. ***P<0.001, **P<0.01, *P<0.05 by unpaired t-test as compared to vehicle treated controls. […] Corneas were injected intrastromally with 0.5 μl of peptide 95-122 at a final concentration of 10^−4 M, 10^−5 M, and 10^−6 M and vehicle (saline) control. Corneas were collected and flash frozen at 24 hours and 48 hours. Corneal lysates were analyzed for cytokines using the MILLIPLEX® MAP mouse cytokine assay for MIP1-β (EMD Millipore Corp., Billerica, Mass.). **P<0.01, *P<0.05 by unpaired t-test as compared to vehicle treated controls. […] Corneas were injected intrastromally with 0.5 μl of peptide 95-122 at a final concentration of 10^−4 M, 10^−5 M, and 10^−6 M and vehicle (saline) control. Corneas were collected and flash frozen at 24 hours and 48 hours. Corneal lysates were analyzed for cytokines using the MILLIPLEX® MAP mouse cytokine assay for KC (A), IL-1β (B), and GM-CSF (C) (EMD Millipore Corp., Billerica, Mass.). **P<0.01, *P<0.05 by unpaired t-test as compared to vehicle treated controls.

[2] = tested on: human corneal epithelial cell (HCEC); experiment: HCEC chemotaxis, modified Boyden chemotaxis chamber; format: cell-based; settings: rCAP37 250 ng/ml; positive control for the peptide
Experimental: The effect of buffer control (0.1% BSA in Gey's buffer), heparin binding-epidermal growth factor (HB-EGF, 50 ng/ml), recombinant CAP37 (rCAP37, 250 ng/ml), 120-146QH (10^−12M, 10^−10 M, 10^−8 M, 10^−6M, and 10^−4M,) and 120-146QR (10^−10M, 10^−8M, 10^−6M, and 10^−4M) on HCEC chemotaxis was determined by the modified Boyden chemotaxis chamber method. HCEC chemotaxis was measured in response to HB-EGF, rCAP37, and peptides 120-146QH (SEQ ID NO:29) and 120-146QR (SEQ ID NO:28) after incubation for 3 hours at 37° C. Chemotaxis is expressed as a percent migration. The buffer control (no chemoattractant) is arbitrarily assigned the value of 100% migration. Data are expressed as means±SEM and are calculated from 6 observations for each test point. **P<0.01 by Wilcoxon signed-rank test as compared to controls.
Chemotaxis: Chemotaxis assays were performed using the modified Boyden chemotaxis chamber assay. Peptide 120-146QH was used at 10^−4 M, 10^−6 M, 10^−8 M, 10^−10 M, and 10^−12 M, and peptide 120-146QR was used at 10^−4 M, 10^−6 M, 10^−8M, and 10^−10M.

HCEC monolayers = experiment: In vitro scratch assay of HCEC monolayers; format: cell-based, human
Experimental: (A) HCECs were grown to confluency and scratched using a 10 μl pipette tip. Scratched HCEC monolayers were treated with HB-EGF (250 ng/ml) or rCAP37 (25-2000 ng/ml), or were left untreated in basal Keratinocyte Serum Free Medium (KSFM). Wound closure was monitored at 0, 18, 24, and 48 hours utilizing a camera-equipped inverted microscope. The histogram represents data acquired at 48 hours, and the values are the mean±SEM of the percentage of wound closure. The data are representative of at least 4 independent experiments. The percentage of wound closure in treated monolayers was compared to untreated controls by one-way analysis of variance (ANOVA) followed by Dunnett's multiple comparison test, **P<0.01, *P<0.05. (B) Representative images of scratched monolayers treated with buffer control, HB-EGF, and rCAP37 (at 25, 100, and 250 ng/ml) are shown for each time point. Images were taken at 20× objective.
In vitro model of wound healing: An in vitro scratch assay was used in order to determine the ability of rCAP37 to facilitate corneal wound healing. Human corneal epithelial cells were cultured as described above until they reached a confluent monolayer. Each monolayer was scratched using a 10 μl pipette tip to create two perpendicular lines. Monolayers were treated with heparin binding-epidermal growth factor (HB-EGF, 250 ng/ml; Becton Dickinson), rCAP37 (25-2000 ng/ml), or basal KSFM (Gibco). Wound closure was monitored at 0, 18, 24, and 48 hours utilizing a camera-equipped inverted microscope (TE2000-E; Nikon, Melville, N.Y.). Time-lapse images of in vitro wound closure were obtained using a camera-equipped inverted microscope (TE2000-E; Nikon) from […]. HCEC monolayers were treated with HB-EGF, rCAP37, and basal KSFM as described above. The width of each scratch was quantitated using ImageJ software (US National Institutes of Health, Bethesda, Md.). Results are presented as the percentage of wound closure.

Molecule	GM-CSF in corneal lysates [1]	IFN-γ in corneal lysates [1]	IL-7 in corneal lysates [1]	IL-10 in corneal lysates [1]	IL-15 in corneal lysates [1]	KC in corneal lysates [1]	MIP1-α in corneal lysates [1]	MIP1-β in corneal lysates [1]	migration of HCECs vs buffer control, in words [2]	percentage wound closure (HCEC monolayers; CAP37 250 ng/ml, at 18 hours)	percentage wound closure (HCEC monolayers; CAP37 500 ng/ml)	time to complete closure of scratch wounds (HCEC monolayers; HB-EGF 250 ng/ml, CAP37 250 ng/ml)
LDREANLTSSVTILPLPLQNATVEAGTR (listed as Homo sapiens) [Peptide 95-122]	significantly increases	significantly increases	significantly increases	significantly increases	significantly increases	significantly increases	significantly increases	significantly increases	–	–	–	–
B1	–	–	–	–	–	–	–	–	significant increase in migration	~71%	approximately 62%	24 to 48 h
